The record followed here is the NIST ThermoML archive (doi:10.1016/j.jct.2018.12.039).

Numbers after ± are expanded uncertainties.

The nature of series [1]: xn = mol fraction of the nth substance listed. The conditions noted are these: 100 kPa, Liquid, x1 = 1; for speed of sound: Frequency=2 MHz, Linear variable-path acoustic interferometer; for mass density: Vibrating tube method.
For series [2] the following is noted: 100 kPa, Liquid; for speed of sound: Frequency=2 MHz, Linear variable-path acoustic interferometer; for mass density: Vibrating tube method.

Turning to `CCO` [ethanol] + Cc1ccc(O)cc1, the speed of sound in series [1] (303.15 K) is recorded as 1127 ± 2.4 m/s; in series [1] (313.15 K) it was 1094 ± 2.4 m/s. In addition, the mass density is given as 781.08 ± 1.2 kg/m3 in series [1] (303.15 K), 776.59 ± 1.2 kg/m3 in series [1] (308.15 K), 772.23 ± 1.2 kg/m3 in series [1] (313.15 K) and 767.61 ± 1.2 kg/m3 in series [1] (318.15 K).

`CCO` [ethanol] + Cc1cccc(O)c1: the values for the speed of sound in series [1] (303.15 K) and in series [1] (313.15 K) were 1127 ± 2.4 m/s and 1094 ± 2.4 m/s, respectively. Further, the mass density in series [1] (303.15 K) was determined as 781.08 ± 1.2 kg/m3; in series [1] (308.15 K), 776.59 ± 1.2 kg/m3; in series [1] (313.15 K), 772.23 ± 1.2 kg/m3; in series [1] (318.15 K), 767.61 ± 1.2 kg/m3.

In the case of `Cc1ccccc1O` [2-methylphenol], the speed of sound in series [2] (303.15 K) amounted to 1488.1 ± 2.5 m/s; in series [2] (313.15 K) it was 1453 ± 2.5 m/s. The mass density in series [2] (303.15 K) came to 1037.02 ± 1.2 kg/m3; in series [2] (308.15 K), 1032.58 ± 1.2 kg/m3; in series [2] (313.15 K), 1028.19 ± 1.2 kg/m3; in series [2] (318.15 K) it was 1023.82 ± 1.2 kg/m3.

`Cc1ccc(O)cc1` [4-methylphenol]: the speed of sound in series [2] (303.15 K) was 1473 ± 2.5 m/s; in series [2] (313.15 K) it was 1440.2 ± 2.5 m/s. The mass density is given as 1026.47 ± 1.2 kg/m3 in series [2] (303.15 K), 1022.56 ± 1.2 kg/m3 in series [2] (308.15 K), 1018.64 ± 1.2 kg/m3 in series [2] (313.15 K) and 1014.68 ± 1.2 kg/m3 in series [2] (318.15 K).

In the case of `CCO` [ethanol] + Cc1ccccc1O, the speed of sound in series [1] (303.15 K) was 1127 ± 2.4 m/s; in series [1] (313.15 K), 1094 ± 2.4 m/s. The mass density in series [1] (303.15 K) was 781.08 ± 1.2 kg/m3; in series [1] (308.15 K), 776.59 ± 1.2 kg/m3; in series [1] (313.15 K), 772.23 ± 1.2 kg/m3; in series [1] (318.15 K), 767.61 ± 1.2 kg/m3.

`CCO` [ethanol]: the speed of sound in series [2] (303.15 K) amounted to 1127 ± 2.4 m/s; in series [2] (313.15 K), 1094 ± 2.4 m/s. In addition, the mass density is on record as 781.08 ± 1.2 kg/m3 in series [2] (303.15 K), 776.59 ± 1.2 kg/m3 in series [2] (308.15 K), 772.23 ± 1.2 kg/m3 in series [2] (313.15 K) and 767.61 ± 1.2 kg/m3 in series [2] (318.15 K).

Turning to `Cc1cccc(O)c1` [3-methylphenol], the speed of sound in series [2] (303.15 K) turned out to be 1466.1 ± 2.5 m/s; in series [2] (313.15 K) it was 1436.1 ± 2.5 m/s. Further, the mass density in series [2] (303.15 K) is 1025.71 ± 1.2 kg/m3; in series [2] (308.15 K) it was 1021.7 ± 1.2 kg/m3; in series [2] (313.15 K), 1017.69 ± 1.2 kg/m3; in series [2] (318.15 K) it was 1013.65 ± 1.2 kg/m3.
